In paper PMC6501583 (Journal of medicinal chemistry, 2019):
“Also recorded” adds a separate entry of the source. One block for each compound: values may come before it.

Experiments:
rat mGlu7 = rat mGlu7 (Rattus norvegicus, UniProt P35400); type: cell-based
[1] = Predicted hepatic clearance; type: in vitro ADME; conditions: for rat CLhep: Table 1, predicted hepatic clearance; for Rat CLhep: Table 2, predicted hepatic clearance
[2] = Predicted hepatic clearance; type: in vitro ADME
Rat plasma:brain level = type: in vivo; conditions: rat PBL IV cassette
[3] = Discrete iv and po pharmacokinetics in rat; type: in vivo; conditions: plasma, 0.2 mg/kg
mGlu1–6,8 = assay: Selectivity versus the other seven mGlu receptors; type: cell-based
5-HT2B receptor = 5-HT2B receptor (Homo sapiens, UniProt P41595); assay: Eurofins lead profiling panel of 68 GPCRs, ion channels, and transporters; type: binding; conditions: at 10 μM; only target of 68 above 50%
Chain of 5-HT2B receptor (P41595 whole entry): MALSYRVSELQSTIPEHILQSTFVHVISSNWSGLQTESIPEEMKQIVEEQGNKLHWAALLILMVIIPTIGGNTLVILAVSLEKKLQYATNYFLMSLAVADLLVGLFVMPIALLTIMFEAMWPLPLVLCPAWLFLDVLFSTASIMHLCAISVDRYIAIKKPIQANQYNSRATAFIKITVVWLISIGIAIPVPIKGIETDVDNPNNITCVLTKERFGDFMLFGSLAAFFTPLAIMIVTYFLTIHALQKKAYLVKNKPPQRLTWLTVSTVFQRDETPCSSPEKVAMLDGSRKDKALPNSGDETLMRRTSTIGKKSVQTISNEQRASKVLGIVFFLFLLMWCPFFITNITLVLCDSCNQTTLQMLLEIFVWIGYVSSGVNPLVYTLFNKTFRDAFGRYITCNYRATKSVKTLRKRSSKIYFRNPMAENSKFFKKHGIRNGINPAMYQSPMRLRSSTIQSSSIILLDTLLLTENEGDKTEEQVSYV

30 mg/kg = type: in vivo, rat
mice [4] = assay: Elevated zero maze; type: in vivo, mouse
mice [5] = assay: Light/dark box assay; type: in vivo, mouse; conditions: vs vehicle
mice [6] = assay: Mouse marble-burying assay; type: in vivo; conditions: vs vehicle
[7] = tested on: hippocampus (native tissues); conditions: cited from earlier work

Chain of rat mGlu7 (P35400 35-915): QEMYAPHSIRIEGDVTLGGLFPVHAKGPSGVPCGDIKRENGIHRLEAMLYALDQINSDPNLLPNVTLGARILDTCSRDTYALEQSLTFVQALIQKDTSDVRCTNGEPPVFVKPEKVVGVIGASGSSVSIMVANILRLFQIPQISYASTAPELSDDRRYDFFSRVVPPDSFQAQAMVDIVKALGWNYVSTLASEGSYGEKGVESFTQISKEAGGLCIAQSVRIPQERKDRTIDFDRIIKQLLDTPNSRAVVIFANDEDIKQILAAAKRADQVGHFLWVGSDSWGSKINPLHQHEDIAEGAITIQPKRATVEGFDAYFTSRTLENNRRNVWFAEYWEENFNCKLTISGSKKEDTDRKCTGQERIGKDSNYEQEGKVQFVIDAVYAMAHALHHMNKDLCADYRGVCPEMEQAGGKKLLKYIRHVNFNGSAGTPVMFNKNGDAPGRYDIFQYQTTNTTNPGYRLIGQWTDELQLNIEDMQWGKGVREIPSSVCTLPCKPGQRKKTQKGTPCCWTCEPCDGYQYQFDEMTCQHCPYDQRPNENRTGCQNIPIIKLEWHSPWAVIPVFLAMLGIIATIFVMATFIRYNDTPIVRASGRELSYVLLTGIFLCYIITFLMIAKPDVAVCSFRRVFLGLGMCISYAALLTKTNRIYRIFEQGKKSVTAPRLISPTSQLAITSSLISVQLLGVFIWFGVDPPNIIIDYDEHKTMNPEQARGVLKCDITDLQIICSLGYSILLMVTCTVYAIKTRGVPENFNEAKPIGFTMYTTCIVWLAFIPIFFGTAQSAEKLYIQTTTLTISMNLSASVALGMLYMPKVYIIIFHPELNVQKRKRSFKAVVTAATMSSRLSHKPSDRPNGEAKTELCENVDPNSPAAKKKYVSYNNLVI

Compound: COc1ccc(CNc2cc(OC(F)(F)F)ccc2-n2cncn2)cc1OC [6a]
% L-AP4 min (rat mGlu7): 17 ± 3%

Compound: COc1ccc(CCCNc2cc(OC(F)(F)F)ccc2-n2cncn2)cc1OC [6b]
rat CLhep [1]: 68.1 mL/min/kg

Compound: COc1cc(F)c(CCCNc2cc(OC(F)(F)F)ccc2-n2cncn2)cc1OC [6c]
rat CLhep [1]: 66.4 mL/min/kg

Compound: COc1cc(F)c(OCCNc2cc(OC(F)(F)F)ccc2-n2cncn2)cc1OC [6d]
rat CLhep [1]: 66.4 mL/min/kg

Compound: COc1ccc(C(=O)Nc2cc(OC(F)(F)F)ccc2-n2cncn2)cc1OC [compound 5]
blocking high-frequency-stimulated LTP in the hippocampus [7]: robust efficacy

Compound: CNCCC(Oc1ccc(C(F)(F)F)cc1)c1ccccc1 (centres unmarked) [fluoxetine, reference compound]
total time spent in the light side of the chamber (mice [5]; 15 mg/kg ip): increased total time spent in the light side of the chamber
number of marbles buried (mice [6]; fluoxetine 15 mg/kg): decreased the number of marbles buried

More lines, main results first:

mGlu7 NAM activity (in words) (rat mGlu7): inactive
Compound: COc1cc(C(=O)Nc2cc(OC(F)(F)F)ccc2-n2cncn2)ccc1OCC(F)(F)F [7a]

mGlu7 NAM activity (in words) (rat mGlu7): inactive
Compound: COc1cc(C(=O)Nc2cc(OC(F)(F)F)ccc2-n2cncn2)ccc1OCC(C)(C)C [7b]

mGlu7 NAM activity (in words) (rat mGlu7): restored mGlu7 NAM activity
Rat CLhep [1]: 38.4 mL/min/kg
Compound: COc1cc(C(=O)Nc2cc(OC(F)(F)F)ccc2-n2cncn2)ccc1OCC(C)C [7c]

predicted hepatic clearance, rat CLhep [1]: 15.9 mL min^–1 kg^–1
Rat CLhep [1]: 15.9 mL/min/kg
predicted hepatic clearance in mouse, CLhep [2]: 44.0 mL min^–1 kg^–1
[brain]tot (Rat plasma:brain level): 375 nM
clearance at 24 h [3]: 31.5 mL/min/kg
compound activity at 5-HT2B receptor (5-HT2B receptor): greater than 50%
predicted unbound levels (CSF concentrations) above the in vitro IC50 (30 mg/kg; at modest doses): ~ 4 fold
[brain]tot (30 mg/kg; rat, 30 mg/kg ip): 745 nM
[plasma]tot (30 mg/kg; rat, 30 mg/kg ip): 598 nM
levels in CSF (30 mg/kg; rat, 30 mg/kg ip): 1300 nM
Compound: COc1cc(C(=O)Nc2cc(OC(F)(F)F)ccc2-n2cncn2)ccc1OCC1CC1 [7d, N-(2-(1H-1,2,4-Triazol-1-yl)-5-(trifluoromethoxy)phenyl)-4-(cyclopropylmethoxy)-3-methoxybenzamide]
activity versus mGlu1–6,8 (mGlu1–6,8): > 10 µM
time spent in the open arms (mice [4]; 3 mg/kg ip, vs VEH p < 0.05, 3 mg/kg): increased total time spent in the open arms; also recorded: increases time spent in the open arms
overall locomotion / distance traveled (mice [4]; 10 mg/kg ip, 10 mg/kg): decrease in overall locomotion; also recorded: decreased distance traveled
total time spent in the light side of the chamber (mice [5]; 3 mg/kg ip): increased total time spent in the light side of the chamber
number of marbles buried (mice [6]; 3 mg/kg, 3 mg/kg): decreased the number of marbles buried; also recorded: reduced the number of marbles buried
